Measurements reported in PubChem BioAssay (NCI).
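Method: 48-hour compound exposure of cells in 96-well plates, five concentrations, linear interpolation of endpoints. TGI: total growth inhibition.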

Experiments:
Assay in all cases: inhibition of tumour cell growth, NCI panel, 48 h
[1] = system: EKVX NSCLC
[2] = system: SF-295 CNS
[3] = system: NCI-H460 lung
[4] = system: MDA-MB-231 breast
[5] = system: PC-3 prostate
[6] = system: UACC-257 melanoma
[7] = system: SW-620 colon
[8] = system: HL-60(TB) leukemia
[9] = system: U251 CNS
[10] = system: NCI/ADR-RES ovarian
[11] = system: SK-MEL-5 melanoma
[12] = system: SNB-75 CNS
[13] = system: HT29 colon
[14] = system: M14 melanoma
[15] = system: SF-268 CNS
[16] = system: SN12C renal
[17] = system: A498 renal
[18] = system: COLO 205 colon
[19] = system: BT-549 breast
[20] = system: IGROV1 ovarian
[21] = system: RPMI-8226 leukemia
[22] = system: SK-MEL-28 melanoma
[23] = system: CAKI-1 renal
[24] = system: HOP-92 NSCLC
[25] = system: HCT-15 colon
[26] = system: LOX IMVI melanoma
[27] = system: SNB-19 CNS
[28] = system: OVCAR-8 ovarian
[29] = system: SK-OV-3 ovarian
[30] = system: DU-145 prostate
[31] = system: NCI-H522 lung
[32] = system: TK-10 renal
[33] = system: SF-539 CNS
[34] = system: OVCAR-5 ovarian
[35] = system: UACC-62 melanoma
[36] = system: HS 578T breast
[37] = system: OVCAR-3 ovarian
[38] = system: HOP-62 NSCLC
[39] = system: MOLT-4 leukemia
[40] = system: MDA-N
[41] = system: HCT-116 colon
[42] = system: ACHN renal
[43] = system: MCF7 breast
[44] = system: RXF 393 renal
[45] = system: NCI-H23 lung
[46] = system: SK-MEL-2 melanoma
[47] = system: MALME-3M melanoma
[48] = system: MDA-MB-435
[49] = system: UO-31 renal
[50] = system: KM12 colon
[51] = system: A549 NSCLC
[52] = system: CCRF-CEM leukemia
[53] = system: K-562 leukemia
[54] = system: OVCAR-4 ovarian
[55] = system: 786-0 renal
[56] = system: NCI-H226 lung
[57] = system: HCC-2998 colon

C=C1c2ccccc2C(=O)c2c1c1c(C(=O)OC)c(O)ccc1n2Cc1ccccc1
TGI [1]: 2.34 µM | TGI [2]: 1.99 µM | TGI [3]: 2.34 µM | TGI [4]: 1.54 µM | TGI [5]: 1.56 µM | TGI [6]: 5.98 µM | TGI [7]: 1.42 µM | TGI [8]: 0.857 µM | TGI [9]: 0.763 µM | TGI [10]: 0.723 µM | TGI [11]: 1.97 µM | TGI [12]: 0.899 µM | TGI [13]: 0.823 µM | TGI [14]: 1.03 µM | TGI [15]: 0.518 µM | TGI [16]: 0.939 µM | TGI [17]: 2.27 µM | TGI [18]: 3.72 µM | TGI [19]: 1.69 µM | TGI [20]: 0.799 µM | TGI [21]: 0.53 µM | TGI [22]: 1.07 µM | TGI [23]: 1.71 µM | TGI [24]: 0.613 µM | TGI [25]: 1.2 µM | TGI [26]: 0.628 µM | TGI [27]: 1.52 µM | TGI [28]: 0.952 µM | TGI [29]: 1.35 µM | TGI [30]: 0.745 µM | TGI [31]: 0.795 µM | TGI [32]: 1.55 µM | TGI [33]: 0.657 µM | TGI [34]: 2.44 µM | TGI [35]: 1.12 µM | TGI [36]: 1.73 µM | TGI [37]: 0.392 µM | TGI [38]: 1.53 µM | TGI [39]: 0.971 µM | TGI [40]: 1.55 µM | TGI [41]: 1.43 µM | TGI [42]: 1.74 µM | TGI [43]: 0.763 µM | TGI [44]: 0.976 µM | TGI [45]: 2.8 µM | TGI [46]: 2.39 µM | TGI [47]: 1.18 µM | TGI [48]: 0.885 µM | TGI [49]: 1.74 µM | TGI [50]: 1.7 µM | TGI [51]: 3.6 µM | TGI [52]: 0.74 µM | TGI [53]: 1.55 µM | TGI [54]: 1.77 µM | TGI [55]: 0.525 µM

CS(=O)(=O)c1nc(-c2cc3c(c(S(C)(=O)=O)n2)CCC3)cc2c1CCCCC2
TGI [56]: > 100 µM | TGI [1]: > 100 µM | TGI [2]: > 100 µM | TGI [4]: > 100 µM | TGI [5]: > 100 µM | TGI [6]: > 100 µM | TGI [7]: > 100 µM | TGI [8]: > 100 µM | TGI [9]: > 100 µM | TGI [10]: > 100 µM | TGI [11]: > 100 µM | TGI [12]: 24.7 µM | TGI [13]: > 100 µM | TGI [14]: > 100 µM | TGI [15]: 92.2 µM | TGI [16]: > 100 µM | TGI [18]: > 100 µM | TGI [19]: 58.2 µM | TGI [20]: 63.7 µM | TGI [21]: > 100 µM | TGI [22]: > 100 µM | TGI [23]: > 100 µM | TGI [25]: > 100 µM | TGI [26]: > 100 µM | TGI [27]: > 100 µM | TGI [28]: > 100 µM | TGI [29]: 34.9 µM | TGI [30]: > 100 µM | TGI [31]: 58.9 µM | TGI [32]: > 100 µM | TGI [34]: > 100 µM | TGI [35]: 80 µM | TGI [36]: 40 µM | TGI [37]: > 100 µM | TGI [38]: 84.8 µM | TGI [39]: > 100 µM | TGI [40]: > 100 µM | TGI [41]: > 100 µM | TGI [42]: > 100 µM | TGI [44]: 39.3 µM | TGI [45]: > 100 µM | TGI [46]: 63.1 µM | TGI [47]: 99.6 µM | TGI [48]: > 100 µM | TGI [49]: > 100 µM | TGI [50]: > 100 µM | TGI [57]: > 100 µM | TGI [51]: > 100 µM | TGI [52]: > 100 µM | TGI [53]: > 100 µM | TGI [54]: > 100 µM | TGI [55]: > 100 µM
